Data from PubChem BioAssay (NCI).
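Interpolation was linear, between the two tested concentrations surrounding the appropriate level; five concentrations were tested over 48 hours in 96-well plates. The concentration for full growth arrest is given as TGI.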

Legend:
Assay in all cases: NCI anticancer screen, dose series, 48 h
[1] = system: NCI-H226 lung
[2] = system: SN12C renal
[3] = system: HCC-2998 colon
[4] = system: BT-549 breast
[5] = system: SF-295 CNS
[6] = system: SK-MEL-5 melanoma
[7] = system: SW-620 colon
[8] = system: HCT-116 colon
[9] = system: CCRF-CEM leukemia
[10] = system: A549 NSCLC
[11] = system: RPMI-8226 leukemia
[12] = system: MOLT-4 leukemia
[13] = system: NCI-H460 lung
[14] = system: HCT-15 colon
[15] = system: HOP-62 NSCLC
[16] = system: MCF7 breast
[17] = system: UACC-257 melanoma
[18] = system: PC-3 prostate
[19] = system: LOX IMVI melanoma
[20] = system: MDA-MB-435

Q: Cc1nnc2n1N=C(c1cc(F)c(Cl)cc1Cl)/C(=C/c1ccc(Cl)cc1)S2 was tested. Which TGI [1] did it give?
A: 63.4 µM

Q: What about the TGI [2] of the same compound?
A: 36 µM

Q: What about the TGI [3] of the same compound?
A: 28.5 µM

Q: What about the TGI [4] of the same compound?
A: 49 µM

Q: And the TGI [5]?
A: 35.5 µM

Q: What about the TGI [6] of the same compound?
A: 41.3 µM

Q: And the TGI [7]?
A: > 100 µM

Q: What about the TGI [8] of the same compound?
A: 21 µM

Q: And the TGI [9]?
A: > 100 µM

Q: And the TGI [10]?
A: 99.6 µM

Q: What about the TGI [11] of the same compound?
A: 44 µM

Q: And the TGI [12]?
A: > 100 µM

Q: What about the TGI [13] of the same compound?
A: 38.9 µM

Q: And the TGI [14]?
A: 35.2 µM

Q: What about the TGI [15] of the same compound?
A: 31.2 µM

Q: What about the TGI [16] of the same compound?
A: 50.8 µM

Q: And the TGI [17]?
A: 44.6 µM

Q: What about the TGI [18] of the same compound?
A: 80.6 µM

Q: And the TGI [19]?
A: 28.3 µM

Q: What about the TGI [20] of the same compound?
A: 29.1 µM

Q: With COc1ccccc1Nc1nc(N)nc(N)c1N=O as the compound, how does the TGI [1] read?
A: > 100 µM

Q: And the TGI [2]?
A: > 100 µM

Q: And the TGI [3]?
A: > 100 µM

Q: And the TGI [4]?
A: > 100 µM

Q: What about the TGI [5] of the same compound?
A: > 100 µM

Q: And the TGI [6]?
A: > 100 µM

Q: And the TGI [7]?
A: > 100 µM

Q: And the TGI [8]?
A: > 100 µM

Q: What about the TGI [9] of the same compound?
A: > 100 µM

Q: What about the TGI [10] of the same compound?
A: > 100 µM

Q: What about the TGI [11] of the same compound?
A: > 100 µM

Q: And the TGI [12]?
A: > 100 µM

Q: What about the TGI [13] of the same compound?
A: > 100 µM

Q: What about the TGI [14] of the same compound?
A: > 100 µM

Q: What about the TGI [15] of the same compound?
A: > 100 µM

Q: What about the TGI [16] of the same compound?
A: > 100 µM

Q: What about the TGI [17] of the same compound?
A: > 100 µM

Q: What about the TGI [18] of the same compound?
A: > 100 µM

Q: And the TGI [19]?
A: > 100 µM

Q: And the TGI [20]?
A: > 100 µM

Q: What does the source list for Brc1ccc(CCNCCN2CCCCC2)cc1?
A: TGI [1]: 59 µM; TGI [2]: 58.5 µM; TGI [3]: 27.7 µM; TGI [4]: 29.4 µM; TGI [5]: 32.3 µM; TGI [6]: 20.6 µM; TGI [7]: 31.1 µM; TGI [8]: 24.4 µM; TGI [9]: > 100 µM; TGI [10]: 30 µM; TGI [11]: > 100 µM; TGI [12]: > 100 µM; TGI [13]: 27.8 µM; TGI [14]: 33.6 µM; TGI [15]: 34.9 µM; TGI [16]: 29.5 µM; TGI [17]: 28.3 µM; TGI [18]: 31.7 µM; TGI [19]: 27.6 µM; TGI [20]: 18.2 µM

Q: Which TGI [1] does the source give for CCCCN1C(=O)CC2[C@@H]3CCc4cc(OC(C)=O)ccc4C3CC[C@]2(C)C1=O (stereo not given in full) here?
A: > 10 µM

Q: What about the TGI [2] of the same compound?
A: > 10 µM

Q: What about the TGI [3] of the same compound?
A: > 10 µM

Q: What about the TGI [4] of the same compound?
A: > 10 µM

Q: And the TGI [5]?
A: > 10 µM

Q: And the TGI [6]?
A: > 10 µM

Q: And the TGI [7]?
A: > 10 µM

Q: What about the TGI [8] of the same compound?
A: > 10 µM

Q: What about the TGI [9] of the same compound?
A: > 10 µM

Q: What about the TGI [10] of the same compound?
A: > 10 µM

Q: What about the TGI [11] of the same compound?
A: > 10 µM

Q: And the TGI [12]?
A: > 10 µM

Q: And the TGI [13]?
A: > 10 µM

Q: And the TGI [14]?
A: > 10 µM

Q: What about the TGI [15] of the same compound?
A: > 10 µM

Q: What about the TGI [16] of the same compound?
A: > 10 µM

Q: And the TGI [17]?
A: > 10 µM

Q: And the TGI [18]?
A: > 10 µM

Q: What about the TGI [19] of the same compound?
A: > 10 µM

Q: And the TGI [20]?
A: > 10 µM

Q: What does the source list for C[N+]1=C2[B-](C(C)(C)C)=[N+](C(C)(C)C)[B-]2(C(C)(C)C)[N+](C)=C2[B-](C(C)(C)C)=[N+](C(C)(C)C)[B-]21C(C)(C)C (stereo not given)?
A: TGI [1]: > 100 µM; TGI [2]: > 100 µM; TGI [3]: > 100 µM; TGI [4]: > 100 µM; TGI [5]: > 100 µM; TGI [6]: > 100 µM; TGI [7]: > 100 µM; TGI [8]: > 100 µM; TGI [9]: > 100 µM; TGI [10]: > 100 µM; TGI [11]: > 100 µM; TGI [12]: > 100 µM; TGI [13]: > 100 µM; TGI [14]: > 100 µM; TGI [15]: > 100 µM; TGI [16]: > 100 µM; TGI [17]: > 100 µM; TGI [18]: > 100 µM; TGI [19]: > 100 µM; TGI [20]: > 100 µM

Q: For COc1cccc(-c2cc(=O)c3ccccc3o2)c1N, which TGI [1] is on record?
A: > 100 µM

Q: What about the TGI [2] of the same compound?
A: > 100 µM

Q: And the TGI [3]?
A: > 100 µM

Q: And the TGI [4]?
A: > 100 µM

Q: And the TGI [5]?
A: > 100 µM

Q: And the TGI [6]?
A: > 100 µM

Q: What about the TGI [7] of the same compound?
A: > 100 µM

Q: And the TGI [8]?
A: > 100 µM

Q: And the TGI [9]?
A: > 100 µM

Q: What about the TGI [10] of the same compound?
A: > 100 µM

Q: What about the TGI [11] of the same compound?
A: > 100 µM

Q: And the TGI [12]?
A: > 100 µM

Q: What about the TGI [13] of the same compound?
A: > 100 µM

Q: And the TGI [14]?
A: > 100 µM

Q: What about the TGI [15] of the same compound?
A: > 100 µM

Q: And the TGI [16]?
A: > 100 µM

Q: What about the TGI [17] of the same compound?
A: > 100 µM

Q: And the TGI [18]?
A: > 100 µM

Q: What about the TGI [19] of the same compound?
A: > 100 µM

Q: And the TGI [20]?
A: > 100 µM
